In assay [1] the test system is purine de novo synthesis of Ehrlich ascites cells. As to the kind of experiment: In vivo formate incorporation into purines. Further details: species or system mouse. Here is the method:
CF1 male mice (~30 g) were implanted with 2×10^6 Ehrlich ascites tumor cells, intraperitoneally on Day 0. Compound I was suspended by homogenation in 0.05% polysorbate.80-water and administered intraperitoneally at 10 and 20 mg/kg for 9 days to determine its effectiveness for inhibition of tumor growth. Mice were sacrificed on Day 10, and the ascites fluid was collected from the peritoneal cavity. The volume and ascrit (packed cell volume) were determined for each animal and the percent inhibition of tumor growth was calculated. For the metabolic studies, mice were treated on Days 8 and 9 with 10 mg/kg of Compound I, intraperitoneally. […]
Carbamyl phosphate synthetase activity was determined using the reaction medium of Kalman et al [Am. […] Citrulline formed from ornithine was measured at 490 nm by the method of Archibald [J. Biol. Chem., 156, 121 (1944)]. […] The ^14 CO2 generated in 15 min was trapped in 1M KOH and counted. Thymidylate synthetase activity was determined using a post-mitochondrial supernatant (9000 g×10 min) and 5 μCi of 5-^3 H-deoxyuridine monophosphate (14 Ci/mmol) according to the method of Kampf et al [ J. Med. Chem., 19, 903 (1976)]. ^14 C-Formate incorporation into purines was determined by the method of Spassova et al [Biochem. Pharmacol., 25, 923 (1976)] using 0.5 μCi of ^14 C-formic acid (52.0 mCi/mmol). […] The Rf value for xanthine monophosphate was scraped and counted. […]

The next assay concerns the target T1, Fatty Acid Synthetase (Mus musculus, UniProt P19096).
T1 construct: 10% homogenates of CF1 male mouse liver; from tissue; host or cells: CF1 male mouse liver, 10% homogenate
As to the kind of experiment: In vivo liver enzyme study: fatty acid synthetase. The settings on record: CF1 liver after 16 days i.p. Here is the method:
In vitro enzymatic studies were determined using 10% homogenates of CF1 male mouse liver with 50-200 μM of test drugs. In vivo enzymatic studies were determined using 10% homogenates of liver from CF1 male mice obtained after administering the agents for 16 days at a dose ranging from 2.5-20 mg/kg/day intraperitoneally. The liver homogenates for both in vitro and in vivo studies were prepared in 0.25M sucrose and 0.001M (ethylenedinitrilo)tetraacetic acid. Acetyl coenzyme A synthetase and adenosine triphosphate dependent citrate lyase activities were determined spectrophotometrically at 540 nm as the hydroxylamate of acetyl coenzyme A formed after 30 min at 37° C. Mitochondrial citrate exchange was determined by the procedure of Robinson et al [Eur. J. Biochem., 216, 63 (1970)] using ^14 C-sodium bicarbonate (41 mCi/mmol) incorporated into mitochondrial ^14 C-citrate after isolating rat mitochondria (9000 g×10 min) from the homogenates. The exchanges of the ^14 C-citrate were determined after incubating the mitochondrial fraction which was loaded with labeled citrate and test drugs for 10 min. Then the radioactivity was measured in the mitochondrial and supernantant fractions in scintillation fluid and expressed as a percentage. Cholesterol side chain oxidation was determined by the method of Kritchevsky and Tepper [Artherosclerosis, 18, 93 (1973)] using (26-^14 C) cholesterol (50 mCi/mmol) and mitochondria isolated from rat liver homogenates. […] Fatty acid synthetase activity was determined by the method of Brady et al [J. Biol. Chem., 235, 3093 (1960)] using [2-^14 C] malonyl-coenzyme A (37.5 mCi/mmol) which was incorporated into newly synthesized fatty acids that were extracted with ether and counted. Acyl transferase activity was determined with glycerol-3phosphate [L-2-^3 H(N)] […] HCl and counted. Phosphatidate phosphohydrolase activity was measured as the inorganic phosphate released after 30 min from phosphatidic acid by the method of Mavis et al [J. Lipid Res., 19, 467 (1978)]. […]

These results are taken from US4550186A, “Binuclear copper (II) carboxylates formed from amine-carboxyboranes” (Duke University, priority 1983, dated 1985).

T1 sequence (P19096 whole entry): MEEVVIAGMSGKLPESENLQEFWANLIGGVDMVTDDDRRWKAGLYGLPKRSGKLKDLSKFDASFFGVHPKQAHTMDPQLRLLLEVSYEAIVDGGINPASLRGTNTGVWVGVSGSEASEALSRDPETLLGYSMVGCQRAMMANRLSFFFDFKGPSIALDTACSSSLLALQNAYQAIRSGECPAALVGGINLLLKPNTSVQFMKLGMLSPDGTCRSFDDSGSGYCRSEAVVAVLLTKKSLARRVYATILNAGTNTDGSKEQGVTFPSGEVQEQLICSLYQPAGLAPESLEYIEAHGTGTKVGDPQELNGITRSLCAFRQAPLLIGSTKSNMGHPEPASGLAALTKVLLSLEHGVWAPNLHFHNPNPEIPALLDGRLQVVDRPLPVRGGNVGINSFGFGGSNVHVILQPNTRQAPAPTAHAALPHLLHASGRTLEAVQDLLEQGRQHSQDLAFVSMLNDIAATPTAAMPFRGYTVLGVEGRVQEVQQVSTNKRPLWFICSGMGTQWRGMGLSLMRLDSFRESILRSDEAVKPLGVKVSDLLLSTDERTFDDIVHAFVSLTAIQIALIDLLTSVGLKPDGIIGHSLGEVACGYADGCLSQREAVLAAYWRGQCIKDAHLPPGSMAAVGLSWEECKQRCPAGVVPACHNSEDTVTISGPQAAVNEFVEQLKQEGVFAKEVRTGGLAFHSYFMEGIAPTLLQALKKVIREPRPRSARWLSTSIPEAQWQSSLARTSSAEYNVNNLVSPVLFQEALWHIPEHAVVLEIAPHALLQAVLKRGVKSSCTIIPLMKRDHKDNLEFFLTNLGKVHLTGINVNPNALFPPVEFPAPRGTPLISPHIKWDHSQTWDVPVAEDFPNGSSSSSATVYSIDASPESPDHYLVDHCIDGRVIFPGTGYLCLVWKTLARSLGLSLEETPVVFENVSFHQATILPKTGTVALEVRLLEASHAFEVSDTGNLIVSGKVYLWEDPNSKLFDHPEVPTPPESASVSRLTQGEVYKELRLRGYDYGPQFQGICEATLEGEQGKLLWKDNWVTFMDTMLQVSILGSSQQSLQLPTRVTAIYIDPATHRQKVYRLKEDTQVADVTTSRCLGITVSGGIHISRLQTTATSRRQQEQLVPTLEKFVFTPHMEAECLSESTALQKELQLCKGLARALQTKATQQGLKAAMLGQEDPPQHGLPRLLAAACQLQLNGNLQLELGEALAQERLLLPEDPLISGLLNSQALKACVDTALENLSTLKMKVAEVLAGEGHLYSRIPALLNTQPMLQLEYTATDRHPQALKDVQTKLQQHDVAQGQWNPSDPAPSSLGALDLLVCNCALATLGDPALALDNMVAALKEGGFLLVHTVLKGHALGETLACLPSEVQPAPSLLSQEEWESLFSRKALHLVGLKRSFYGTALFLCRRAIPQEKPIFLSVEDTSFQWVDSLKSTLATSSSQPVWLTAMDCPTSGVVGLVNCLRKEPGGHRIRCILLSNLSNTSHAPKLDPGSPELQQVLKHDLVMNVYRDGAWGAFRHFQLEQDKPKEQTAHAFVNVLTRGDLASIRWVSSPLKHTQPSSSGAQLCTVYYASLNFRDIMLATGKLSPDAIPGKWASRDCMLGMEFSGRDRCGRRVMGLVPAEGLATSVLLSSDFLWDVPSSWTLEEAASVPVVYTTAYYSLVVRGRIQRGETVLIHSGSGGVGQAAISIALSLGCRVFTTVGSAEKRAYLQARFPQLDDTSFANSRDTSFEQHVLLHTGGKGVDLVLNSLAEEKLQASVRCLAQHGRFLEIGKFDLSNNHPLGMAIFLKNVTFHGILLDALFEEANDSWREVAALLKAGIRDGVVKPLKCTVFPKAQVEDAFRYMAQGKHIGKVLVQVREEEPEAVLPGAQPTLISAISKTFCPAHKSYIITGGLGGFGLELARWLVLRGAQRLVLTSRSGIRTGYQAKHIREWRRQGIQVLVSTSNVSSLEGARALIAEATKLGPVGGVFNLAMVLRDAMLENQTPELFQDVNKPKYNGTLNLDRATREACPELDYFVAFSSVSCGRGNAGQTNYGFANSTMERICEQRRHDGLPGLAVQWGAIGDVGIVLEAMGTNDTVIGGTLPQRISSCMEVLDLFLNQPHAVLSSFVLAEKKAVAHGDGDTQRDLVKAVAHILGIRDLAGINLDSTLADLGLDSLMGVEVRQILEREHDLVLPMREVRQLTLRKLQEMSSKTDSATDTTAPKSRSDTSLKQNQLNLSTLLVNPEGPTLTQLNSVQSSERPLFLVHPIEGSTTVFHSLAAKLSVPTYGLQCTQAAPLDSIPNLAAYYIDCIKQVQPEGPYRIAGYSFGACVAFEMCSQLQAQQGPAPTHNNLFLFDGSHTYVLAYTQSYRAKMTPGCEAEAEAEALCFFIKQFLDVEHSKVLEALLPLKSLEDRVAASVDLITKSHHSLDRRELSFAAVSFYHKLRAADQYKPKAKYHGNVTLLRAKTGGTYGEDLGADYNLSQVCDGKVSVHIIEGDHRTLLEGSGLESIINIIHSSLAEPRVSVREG

Regarding “{Cu[(CH3)3 N.BH2 CO2 ]2.(CH3)3 N.BH2 COOH} [Compound I]”, in assay [1] (10 mg/kg/day I.P. on Days 8 and 9), the “14C-Formate incorporation into purines” value is given as 59 ± 6 % Control. The “Purine de novo synthesis inhibited” value in assay [1] (10 day Ehrlich ascites cells) is 41%. The “Fatty Acid Synthetase” value at Fatty Acid Synthetase (2.5 mg/kg) is 102 ± 7% of control; at Fatty Acid Synthetase (5.0 mg/kg), 90 ± 6% of control; on Fatty Acid Synthetase (10 mg/kg), 94 ± 5% of control.
